Test results: patent publication US10167262B2, “Herbicidal substituted 3-arylpyrazoles” (FMC CORPORATION, priority 2014, dated 2019)

Tests used:
Assay type in all cases: in vivo
[1] = tested on: barnyardgrass (Echinochloa crus-galli); assay: Test A pre-/postemergence greenhouse herbicide test, visual injury rating 0-100
Method in brief: (§1)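 Visual injury versus untreated controls, scored about 10 days after treatment on a 0 to 100 scale (0 = no effect, 100 = complete control). Applications were preemergence directed soil spray plus postemergence spray at one- to two-leaf stage, 2 to 10 cm plants.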

corn (Zea mays) = assay: as above
Method in brief: as §1

[2] = tested on: giant foxtail (Setaria faberii); assay: as above
Method in brief: as §1

[3] = tested on: large (Lg) crabgrass (Digitaria sanguinalis); assay: as above
Method in brief: as §1

[4] = tested on: morningglory (Ipomoea spp.); assay: as above
Method in brief: as §1

[5] = tested on: pigweed (Amaranthus retroflexus); assay: as above
Method in brief: as §1

[6] = tested on: velvetleaf (Abutilon theophrasti); assay: as above
Method in brief: as §1

[7] = tested on: wheat (Triticum aestivum); assay: as above
Method in brief: as §1

[8] = tested on: blackgrass (Alopecurus myosuroides); assay: Test C pre-/postemergence greenhouse test, plant response rating 0-100; details: Postemergence; for Plant response rating, Blackgrass: scale 0 to 100
Source text: (§2) Seeds of plant species selected from blackgrass (Alopecurus myosuroides), Italian ryegrass (Lolium multiflorum), winter wheat (Triticum aestivum), galium (catchweed bedstraw, Galium aparine), corn (Zea mays), large (Lg) crabgrass (Digitaria sanguinalis), giant foxtail (Setaria faberii), johnsongrass (Sorghum halepense), lambsquarters (Chenopodium album), morningglory (Ipomoea coccinea), yellow nutsedge (Cyperus esculentus), pigweed (Amaranthus retroflexus), ragweed (common ragweed, Ambrosia elatior), soybean (Glycine max), barnyardgrass (Echinochloa crus-galli), oilseed rape (Brassica napus), waterhemp (common waterhemp, Amaranthus rudis), and velvetleaf (Abutilon theophrasti) were planted into a blend of loam soil and sand and treated preemergence with test chemicals formulated in a non-phytotoxic solvent mixture which included a surfactant.
(§3) At the same time, plants selected from these crop and weed species and also winter barley (Hordeum vulgare), bermudagrass (Cynodon dactylon), downy bromegrass (Bromus tectorum), canarygrass (Phalaris minor), cocklebur (common cocklebur, Xanthium strumarium), woolly cupgrass (Eriochloa villosa), deadnettle (henbit deadnettle, Lamium amplexicaule), green foxtail (Setaria viridis), goosegrass (Eleusine indica), surinam grass (Brachiaria decumbens), windgrass (Apera spica-venti), chickweed (common chickweed, Stellaria media), kochia (Kochia scoparia), and wild oat (Avena fatua), were planted in pots containing Redi-Earth® planting medium (Scotts Company, 14111 Scottslawn Road, Marysville, Ohio 43041) comprising spaghnum peat moss, vermiculite, wetting agent and starter nutrients and treated with postemergence applications of test chemicals formulated in the same manner. Plants ranged in height from 2 to 18 cm (1- to 4-leaf stage) for postemergence treatments. Treated plants and controls were maintained in a greenhouse for 13 to 15 days, after which time all species were compared to controls and visually evaluated. Plant response ratings, summarized in Table C, are based on a scale of 0 to 100 where 0 is no effect and 100 is complete control. A dash (-) response means no test result.

[9] = tested on: large (Lg) crabgrass (Digitaria sanguinalis); assay: as above; details: Postemergence; for Plant response rating, Crabgrass, Large: scale 0 to 100
Source text: as §2, §3

[10] = tested on: morningglory (Ipomoea coccinea); assay: as above; details: Postemergence; for Plant response rating, Morningglory: scale 0 to 100
Source text: as §2, §3

[11] = tested on: ragweed (common ragweed, Ambrosia elatior); assay: as above
Source text: as §2, §3

[12] = tested on: velvetleaf (Abutilon theophrasti); assay: as above
Source text: as §2, §3

[13] = Postemergence, 250 g ai/ha, scale 0 to 100
[14] = Postemergence, 500 g ai/ha, scale 0 to 100
[15] = Preemergence, 0 to 100 scale (0 no effect, 100 complete control), rate 500 g ai/ha per head r3, sub-head of this section not shown

O=C(c1ccccc1)c1cn(S(=O)(=O)CCl)nc1-c1cc(Cl)cc(Cl)c1 [Compound 1]
75: Plant response rating (0 to 100), Velvetleaf ([12]; Postemergence, 125 g ai/ha)
50: Plant response rating (0 to 100), Ragweed ([11]; Postemergence, 125 g ai/ha)
65: Plant response rating, Ragweed [11, 13]
70: Plant response rating (0 to 100), Velvetleaf ([12]; Postemergence, 62 g ai/ha)
20: Velvetleaf plant response rating (0 = no effect, 100 = complete control) ([6]; Preemergence, 125 g ai/ha) | Plant response rating (0 to 100 scale), Velvetleaf ([6]; Preemergence, 500 g ai/ha)
90: Plant response rating (0 to 100 scale), Pigweed ([5]; Postemergence, 500 g ai/ha) | Plant response rating (0 to 100 scale), Velvetleaf ([6]; Postemergence, 125 g ai/ha) | Plant response rating (0 to 100 scale), Velvetleaf ([6]; Postemergence, 500 g ai/ha)
0: Plant response rating (0 to 100 scale), Barnyardgrass ([1]; Postemergence, 125 g ai/ha) | Plant response rating (0 to 100 scale), Barnyardgrass ([1]; Postemergence, 500 g ai/ha) | Barnyardgrass plant response rating (0 = no effect, 100 = complete control) ([1]; Preemergence, 125 g ai/ha) | Plant response rating (0 to 100 scale), Barnyardgrass ([1]; Preemergence, 500 g ai/ha) | Plant response rating (0 to 100 scale), Corn (corn (Zea mays); Postemergence, 125 g ai/ha) | Plant response rating (0 to 100 scale), Corn (corn (Zea mays); Postemergence, 500 g ai/ha) | Corn plant response rating (0 = no effect, 100 = complete control) (corn (Zea mays); Preemergence, 125 g ai/ha) | Plant response rating (0 to 100 scale), Corn (corn (Zea mays); Preemergence, 500 g ai/ha) | Plant response rating (0 to 100 scale), Foxtail, Giant ([2]; Postemergence, 125 g ai/ha) | Plant response rating (0 to 100 scale), Foxtail, Giant ([2]; Postemergence, 500 g ai/ha) | Foxtail, Giant plant response rating (0 = no effect, 100 = complete control) ([2]; Preemergence, 125 g ai/ha) | Plant response rating (0 to 100 scale), Foxtail, Giant ([2]; Preemergence, 500 g ai/ha) | Plant response rating (0 to 100 scale), Crabgrass, Large ([3]; Postemergence, 125 g ai/ha) | Plant response rating (0 to 100 scale), Crabgrass, Large ([3]; Postemergence, 500 g ai/ha) | Crabgrass, Large plant response rating (0 = no effect, 100 = complete control) ([3]; Preemergence, 125 g ai/ha) | Plant response rating (0 to 100 scale), Crabgrass, Large ([3]; Preemergence, 500 g ai/ha) | Plant response rating (0 to 100 scale), Morningglory ([4]; Postemergence, 125 g ai/ha) | Plant response rating (0 to 100 scale), Morningglory ([4]; Postemergence, 500 g ai/ha) | Morningglory plant response rating (0 = no effect, 100 = complete control) ([4]; Preemergence, 125 g ai/ha) | Plant response rating (0 to 100 scale), Morningglory ([4]; Preemergence, 500 g ai/ha) | Plant response rating (0 to 100 scale), Wheat ([7]; Postemergence, 125 g ai/ha) | Plant response rating (0 to 100 scale), Wheat ([7]; Postemergence, 500 g ai/ha) | Wheat plant response rating (0 = no effect, 100 = complete control) ([7]; Preemergence, 125 g ai/ha) | Plant response rating (0 to 100 scale), Wheat ([7]; Preemergence, 500 g ai/ha) | Plant response rating (0 to 100), Blackgrass ([8]; 31 g ai/ha) | Plant response rating (0 to 100), Blackgrass ([8]; 62 g ai/ha) | Plant response rating, Blackgrass ([8]; 125 g ai/ha) | Plant response rating, Blackgrass ([8]; 250 g ai/ha) | Plant response rating (0 to 100), Crabgrass, Large ([9]; 31 g ai/ha) | Plant response rating (0 to 100), Crabgrass, Large ([9]; 62 g ai/ha) | Plant response rating (0 to 100), Crabgrass, Large ([9]; 125 g ai/ha) | Plant response rating, Crabgrass, Large ([9]; 250 g ai/ha) | Plant response rating (0 to 100), Morningglory ([10]; 62 g ai/ha) | Plant response rating (0 to 100), Morningglory ([10]; 125 g ai/ha) | Plant response rating, Morningglory ([10]; 250 g ai/ha)
80: Plant response rating (0 to 100 scale), Pigweed ([5]; Postemergence, 125 g ai/ha) | Plant response rating (0 to 100 scale), Pigweed ([5]; Preemergence, 500 g ai/ha) | Plant response rating, Velvetleaf [12, 13]
40: Pigweed plant response rating (0 = no effect, 100 = complete control) ([5]; Preemergence, 125 g ai/ha) | Plant response rating (0 to 100), Ragweed ([11]; Postemergence, 62 g ai/ha)

O=C(c1ccccc1)c1cn(S(=O)(=O)C(F)(F)F)nc1-c1cc(Cl)cc(Cl)c1 [Compound 2]
85: Plant response rating, Velvetleaf [12, 14]
70: Plant response rating, Ragweed [11, 14]
60: Plant response rating (0 to 100), Ragweed ([11]; Postemergence, 125 g ai/ha) | Plant response rating, Ragweed [11, 13]
80: Plant response rating, Velvetleaf [12, 13]
90: Plant response rating (0 to 100 scale), Pigweed ([5]; Postemergence, 125 g ai/ha) | Plant response rating (0 to 100 scale), Velvetleaf ([6]; Postemergence, 125 g ai/ha)
75: Plant response rating (0 to 100), Velvetleaf ([12]; Postemergence, 62 g ai/ha) | Plant response rating (0 to 100), Velvetleaf ([12]; Postemergence, 125 g ai/ha)
20: Velvetleaf plant response rating (0 = no effect, 100 = complete control) ([6]; Preemergence, 125 g ai/ha)
35: Plant response rating, Velvetleaf [12, 15]
0: Plant response rating (0 to 100 scale), Barnyardgrass ([1]; Postemergence, 125 g ai/ha) | Plant response rating (0 to 100 scale), Barnyardgrass ([1]; Postemergence, 500 g ai/ha) | Barnyardgrass plant response rating (0 = no effect, 100 = complete control) ([1]; Preemergence, 125 g ai/ha) | Plant response rating (0 to 100 scale), Barnyardgrass ([1]; Preemergence, 500 g ai/ha) | Plant response rating (0 to 100 scale), Corn (corn (Zea mays); Postemergence, 125 g ai/ha) | Plant response rating (0 to 100 scale), Corn (corn (Zea mays); Postemergence, 500 g ai/ha) | Corn plant response rating (0 = no effect, 100 = complete control) (corn (Zea mays); Preemergence, 125 g ai/ha) | Plant response rating (0 to 100 scale), Corn (corn (Zea mays); Preemergence, 500 g ai/ha) | Plant response rating (0 to 100 scale), Foxtail, Giant ([2]; Postemergence, 125 g ai/ha) | Plant response rating (0 to 100 scale), Foxtail, Giant ([2]; Postemergence, 500 g ai/ha) | Foxtail, Giant plant response rating (0 = no effect, 100 = complete control) ([2]; Preemergence, 125 g ai/ha) | Plant response rating (0 to 100 scale), Foxtail, Giant ([2]; Preemergence, 500 g ai/ha) | Plant response rating (0 to 100 scale), Crabgrass, Large ([3]; Postemergence, 125 g ai/ha) | Plant response rating (0 to 100 scale), Crabgrass, Large ([3]; Postemergence, 500 g ai/ha) | Crabgrass, Large plant response rating (0 = no effect, 100 = complete control) ([3]; Preemergence, 125 g ai/ha) | Plant response rating (0 to 100 scale), Crabgrass, Large ([3]; Preemergence, 500 g ai/ha) | Plant response rating (0 to 100 scale), Morningglory ([4]; Postemergence, 125 g ai/ha) | Plant response rating (0 to 100 scale), Morningglory ([4]; Postemergence, 500 g ai/ha) | Morningglory plant response rating (0 = no effect, 100 = complete control) ([4]; Preemergence, 125 g ai/ha) | Plant response rating (0 to 100 scale), Morningglory ([4]; Preemergence, 500 g ai/ha) | Plant response rating (0 to 100 scale), Wheat ([7]; Postemergence, 125 g ai/ha) | Plant response rating (0 to 100 scale), Wheat ([7]; Postemergence, 500 g ai/ha) | Wheat plant response rating (0 = no effect, 100 = complete control) ([7]; Preemergence, 125 g ai/ha) | Plant response rating (0 to 100 scale), Wheat ([7]; Preemergence, 500 g ai/ha) | Plant response rating (0 to 100), Blackgrass ([8]; 62 g ai/ha) | Plant response rating, Blackgrass ([8]; 125 g ai/ha) | Plant response rating, Blackgrass ([8]; 250 g ai/ha) | Plant response rating, Blackgrass ([8]; 500 g ai/ha) | Plant response rating (0 to 100), Crabgrass, Large ([9]; 62 g ai/ha) | Plant response rating (0 to 100), Crabgrass, Large ([9]; 125 g ai/ha) | Plant response rating, Crabgrass, Large ([9]; 250 g ai/ha) | Plant response rating, Crabgrass, Large ([9]; 500 g ai/ha) | Plant response rating (0 to 100), Morningglory ([10]; 62 g ai/ha) | Plant response rating (0 to 100), Morningglory ([10]; 125 g ai/ha) | Plant response rating, Morningglory ([10]; 250 g ai/ha) | Plant response rating, Ragweed [11, 15]
50: Pigweed plant response rating (0 = no effect, 100 = complete control) ([5]; Preemergence, 125 g ai/ha)
10: Plant response rating, Morningglory ([10]; 500 g ai/ha)
40: Plant response rating (0 to 100), Ragweed ([11]; Postemergence, 62 g ai/ha)
100: Plant response rating (0 to 100 scale), Pigweed ([5]; Postemergence, 500 g ai/ha) | Plant response rating (0 to 100 scale), Pigweed ([5]; Preemergence, 500 g ai/ha) | Plant response rating (0 to 100 scale), Velvetleaf ([6]; Postemergence, 500 g ai/ha) | Plant response rating (0 to 100 scale), Velvetleaf ([6]; Preemergence, 500 g ai/ha)
